Data: the supplement of paper PMC10307832

Columns and labels:
Test in all cases: relative viability (nuclei count vs DMSO), 5 days (fraction); higher = more cells survive
[1] = compound: COC1=CC(c2cc3ccccc3[nH]2)=N/C1=C\c1[nH]c(C)cc1C [Obatoclax] + C[C@@H](Oc1cc(-c2cnn(C3CCNCC3)c2)cnc1N)c1c(Cl)ccc(F)c1Cl [Crizotinib] (partner 1 µM)
In short: (§1)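 Relative viability is defined as nuclei in treated wells over nuclei in vehicle wells. Duplicate plates were run and medians reported. Lung cancer cell lines in 1536-well plates were dosed by pin tool one day after seeding, with one drug or with a fixed anchor-drug dose plus five library-drug doses (not always all listed) in √10 steps, and nuclei were counted after 5 days.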

[2] = compound: CC1=CC(=NN1)NC2=CC(=NC(=N2)/C=C/C3=CC=CC=C3)N4CCN(CC4)C + CC(C)C[C@H](NC(=O)[C@H](Cc1ccccc1)NC(=O)c1cnccn1)B(O)O [Bortezomib] (partner 0.002 µM)
In short: as §1

[3] = compound: COC1=CC(c2cc3ccccc3[nH]2)=N/C1=C\c1[nH]c(C)cc1C [Obatoclax] + CC(=O)Nc1cccc(-n2c(=O)n(C3CC3)c(=O)c3c(Nc4ccc(I)cc4F)n(C)c(=O)c(C)c32)c1 [Trametinib] (partner 0.02 µM)
In short: as §1

[4] = compound: COC1=CC(c2cc3ccccc3[nH]2)=N/C1=C\c1[nH]c(C)cc1C [Obatoclax] + NC(=O)Nc1cc(-c2cccc(F)c2)sc1C(=O)N[C@H]1CCCNC1 [AZD7762] (partner 0.2 µM)
In short: as §1

Cell Line	relative viability ([1]; first compound 0.01 µM)	relative viability ([1]; first compound 0.03162 µM)	relative viability ([1]; first compound 0.1 µM)	relative viability ([1]; first compound 0.3162 µM)	relative viability ([1]; first compound 1 µM)	relative viability ([2]; first compound 0.08 µM)	relative viability ([2]; first compound 0.253 µM)	relative viability ([2]; first compound 0.8 µM)	relative viability ([2]; first compound 2.53 µM)	relative viability ([2]; first compound 8 µM)	relative viability ([3]; first compound 0.01 µM)	relative viability ([3]; first compound 0.1 µM)	relative viability ([3]; first compound 0.3162 µM)	relative viability ([3]; first compound 1 µM)	relative viability ([4]; first compound 0.01 µM)	relative viability ([4]; first compound 0.1 µM)	relative viability ([4]; first compound 0.3162 µM)	relative viability ([4]; first compound 1 µM)	relative viability ([3]; first compound 0.03162 µM)	relative viability ([4]; first compound 0.03162 µM)
EBC-1	0.176	0.198	0.197	0.19	0.168	0.523	0.557	0.427	0.264	0.158	–	–	–	–	–	–	–	–	–	–
EKVX	0.867	0.979	0.979	0.914	0.643	0.987	1.33	1.2	0.824	0.141	0.321	0.464	0.307	0.292	0.614	0.348	0.756	0.706	–	–
EMC-BAC-2	0.777	0.725	0.738	0.745	0.634	1.05	1.1	1.01	0.813	0.135	0.959	–	0.89	0.557	1.12	0.963	1.02	0.874	0.937	1.11
EPLC-272H	0.873	0.682	0.803	0.941	0.946	0.952	0.914	0.956	0.531	0.279	0.306	0.352	0.252	0.301	0.236	0.155	0.192	0.229	0.301	0.145
H3255	0.773	0.87	0.828	0.624	0.697	0.878	0.854	0.895	0.745	0.198	0.561	–	0.631	0.615	0.874	0.725	0.785	0.762	0.629	0.848
HARA	1.01	1.03	1.1	1.05	0.382	0.971	1.31	1.09	0.352	0.109	0.658	0.83	0.768	0.705	0.379	0.397	0.173	0.244	0.926	0.237
HCC-15	0.768	0.821	0.741	0.776	0.689	0.981	0.961	1	0.377	0.235	0.43	0.401	0.353	0.411	1.04	1.21	1.25	1.36	0.297	1.34
HCC-44	0.786	0.684	0.8	0.721	0.228	0.805	0.968	0.854	0.735	0.25	1.09	0.989	1.1	0.994	0.95	1.14	1.01	0.978	1.02	1.03
